The subject of data set [1] is Humane Erythrozyten. Nature of the data set: Haemolysis of washed human erythrocytes by cyclodextrin derivatives. Type of data set: cell-based, menschlicher. The settings on record: washed human erythrocytes (0,25%), 10 mM isotonic phosphate buffer pH 7,4, 37°C/30 min; read graphically against complete lysis in water; read-out: Cyclodextrin-Konzentration (frei bzw.gebunden) zur halb-maximalen Hämolyse. On the procedure: (§1) Die Hämolyserate der in Tabelle III aufgeführten Cyclodextrin-Derivate wurde wie folgt bestimmt. Humane Erythrozyten wurden aus Citratblut durch Zentrifugation gewonnen (1000 x g / 10 Minuten), in 10 mM isotonem Phosphatpuffer (pH 7,4) aufgenommen und dreimal gewaschen und in diesem Puffer auf einen Hämatokrit von 5% eingestellt. Aliquote der gewaschenen Erythrozyten (0,1 ml) wurden zu 4 ml der in der Tabelle 3 aufgelisteten Cyclodextrin-Derivate (jeweils 5 unterschiedliche Konzentrationen) zugegeben, gemischt und 30 Minuten bei 37°C und gelegentlichem leichten Schütteln inkubiert. Nach abermaliger Zentrifugation (1000 x g / 10 Minuten) wurde das freigesetzten Hämoglobin im Überstand spektralphotometrisch bei 543 nm bestimmt. Die Hämolyseraten wurde aus den erhaltenen Absoptionswerten im Vergleich mit einer kompletter […] in Wasser ermittelt und die Cyclodextrin- Konzentrationen mit halbmaximaler Hämolyse graphisch ermittelt.
(§2) Tabelle III : Hämolyse gewaschener menschlicher Erythrozyten (0,25%) in 10 mM isotonem Phosphatpuffer (pH 7,4) bei 37°C/30 Minuten durch Cyclodextrin-Derivate

Data set [2] can be described thus: physchem. Particulars: water.
A short description of data set [3]: Haemolysis of washed human erythrocytes by cyclodextrin derivatives. Type of data set: cell-based, menschlicher. Particulars: washed human erythrocytes (0,25%), 10 mM isotonic phosphate buffer pH 7,4, 37°C/30 min; read graphically against complete lysis in water; read-out: Cyclodextrin-Konzentration (frei bzw.gebunden) zur halb-maximalen Hämolyse. As for the experimental part: as §1, §2

≈ marks a conversion by molar mass, not a printed value.

Turning to 2-HP-β-Cyclodextrin, the HC50 in data set [1] is 10 mM. In the case of `CC(=O)[C@H]1CC[C@H]2[C@@H]3CCC4=CC(=O)CC[C@]4(C)[C@H]3CC[C@]12C` [Progesteron], the thermodynamic solubility (as a rule, the concentration in solution at equilibrium with solid) at 72 h in data set [2] is 15 µg/mL (≈ 47.7 µM). As to `OC[C@H]1O[C@@H]2O[C@H]3[C@H](O)[C@@H](O)[C@@H](O[C@H]4[C@H](O)[C@@H](O)[C@@H](O[C@H]5[C@H](O)[C@@H](O)[C@@H](O[C@H]6[C@H](O)[C@@H](O)[C@@H](O[C@H]7[C@H](O)[C@@H](O)[C@@H](O[C@H]8[C@H](O)[C@@H](O)[C@@H](O[C@H]1[C@H](O)[C@H]2O)O[C@@H]8CO)O[C@@H]7CO)O[C@@H]6CO)O[C@@H]5CO)O[C@@H]4CO)O[C@@H]3CO` [β-Cyclodextrin], the HC50 at 0.5 h in data set [3] amounted to 5 mM.

As to α-Cyclodextrin, the HC50 in data set [1] is 11 mM.

Consider γ--Cyclodextrin, for which the HC50 in data set [1] amounted to 30 mM.

Source of the values: patent EP1808181A1, “Polysaccharide-cyclodextrin conjugates” (B. BRAUN MELSUNGEN AG, priority 2006, dated 2007).
